#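 Results reflect a 48-hour exposure of cells in 96-well plates to compound at five concentrations. GI50 is the concentration that inhibits growth by half. TGI denotes the concentration required for complete inhibition of growth.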
# Legend:
# Assay in all cases: DTP human tumour cell line panel, 48 h
# 786-0 renal = tested on: 786-0 renal
# A498 renal = tested on: A498 renal
# A549 NSCLC = tested on: A549 NSCLC
# ACHN renal = tested on: ACHN renal
# BT-549 breast = tested on: BT-549 breast
# CAKI-1 renal = tested on: CAKI-1 renal
# COLO 205 colon = tested on: COLO 205 colon
# DU-145 prostate = tested on: DU-145 prostate
# EKVX NSCLC = tested on: EKVX NSCLC
# HCC-2998 colon = tested on: HCC-2998 colon
# HCT-116 colon = tested on: HCT-116 colon
# HCT-15 colon = tested on: HCT-15 colon
# HL-60(TB) leukemia = tested on: HL-60(TB) leukemia
# HOP-62 NSCLC = tested on: HOP-62 NSCLC
# HOP-92 NSCLC = tested on: HOP-92 NSCLC
# HS 578T breast = tested on: HS 578T breast
# IGROV1 ovarian = tested on: IGROV1 ovarian
# K-562 leukemia = tested on: K-562 leukemia
# LOX IMVI melanoma = tested on: LOX IMVI melanoma
# M14 melanoma = tested on: M14 melanoma
# MALME-3M melanoma = tested on: MALME-3M melanoma
# MCF7 breast = tested on: MCF7 breast
# MDA-MB-231 breast = tested on: MDA-MB-231 breast
# MDA-MB-435 = tested on: MDA-MB-435
# MDA-MB-468 breast = tested on: MDA-MB-468 breast
# MOLT-4 leukemia = tested on: MOLT-4 leukemia
# NCI-H226 lung = tested on: NCI-H226 lung
# NCI-H23 lung = tested on: NCI-H23 lung
# NCI-H460 lung = tested on: NCI-H460 lung
# NCI-H522 lung = tested on: NCI-H522 lung
# NCI/ADR-RES ovarian = tested on: NCI/ADR-RES ovarian
# OVCAR-5 ovarian = tested on: OVCAR-5 ovarian
# OVCAR-8 ovarian = tested on: OVCAR-8 ovarian
# PC-3 prostate = tested on: PC-3 prostate
# RPMI-8226 leukemia = tested on: RPMI-8226 leukemia
# RXF 393 renal = tested on: RXF 393 renal
# SF-268 CNS = tested on: SF-268 CNS
# SF-295 CNS = tested on: SF-295 CNS
# SF-539 CNS = tested on: SF-539 CNS
# SK-MEL-2 melanoma = tested on: SK-MEL-2 melanoma
# SK-MEL-28 melanoma = tested on: SK-MEL-28 melanoma
# SK-MEL-5 melanoma = tested on: SK-MEL-5 melanoma
# SK-OV-3 ovarian = tested on: SK-OV-3 ovarian
# SN12C renal = tested on: SN12C renal
# SNB-19 CNS = tested on: SNB-19 CNS
# SNB-75 CNS = tested on: SNB-75 CNS
# SW-620 colon = tested on: SW-620 colon
# TK-10 renal = tested on: TK-10 renal
# U251 CNS = tested on: U251 CNS
# UACC-257 melanoma = tested on: UACC-257 melanoma
# UACC-62 melanoma = tested on: UACC-62 melanoma
# UO-31 renal = tested on: UO-31 renal
smiles,measurement,setting,value
O=C(NN1C(=O)/C(=C/C=C/c2ccc([N+](=O)[O-])o2)SC1=S)c1cccc(O)c1,GI50,786-0 renal,1620 nM
same,TGI,786-0 renal,3020 nM
same,GI50,A498 renal,19700 nM
same,TGI,A498 renal,33800 nM
same,GI50,A549 NSCLC,2920 nM
same,TGI,A549 NSCLC,11600 nM
same,GI50,ACHN renal,1640 nM
same,TGI,ACHN renal,3000 nM
same,GI50,BT-549 breast,492 nM
same,TGI,BT-549 breast,1790 nM
same,GI50,CAKI-1 renal,1570 nM
same,TGI,CAKI-1 renal,2920 nM
same,GI50,COLO 205 colon,1600 nM
same,TGI,COLO 205 colon,3080 nM
same,GI50,DU-145 prostate,2120 nM
same,TGI,DU-145 prostate,4480 nM
same,GI50,EKVX NSCLC,1490 nM
same,TGI,EKVX NSCLC,2900 nM
same,GI50,HCC-2998 colon,1740 nM
same,TGI,HCC-2998 colon,3150 nM
same,GI50,HCT-116 colon,233 nM
same,TGI,HCT-116 colon,630 nM
same,GI50,HCT-15 colon,167 nM
same,TGI,HCT-15 colon,371 nM
same,GI50,HL-60(TB) leukemia,2120 nM
same,TGI,HL-60(TB) leukemia,5490 nM
same,GI50,HOP-62 NSCLC,1730 nM
same,TGI,HOP-62 NSCLC,3190 nM
same,GI50,HOP-92 NSCLC,1230 nM
same,TGI,HOP-92 NSCLC,2820 nM
same,GI50,HS 578T breast,2130 nM
same,TGI,HS 578T breast,7700 nM
same,GI50,IGROV1 ovarian,1390 nM
same,TGI,IGROV1 ovarian,2690 nM
same,GI50,K-562 leukemia,222 nM
same,TGI,K-562 leukemia,1100 nM
same,GI50,LOX IMVI melanoma,167 nM
same,TGI,LOX IMVI melanoma,323 nM
same,GI50,M14 melanoma,282 nM
same,TGI,M14 melanoma,921 nM
same,GI50,MALME-3M melanoma,205 nM
same,TGI,MALME-3M melanoma,447 nM
same,GI50,MCF7 breast,1240 nM
same,TGI,MCF7 breast,2960 nM
same,GI50,MDA-MB-231 breast,253 nM
same,TGI,MDA-MB-231 breast,737 nM
same,GI50,MDA-MB-435,675 nM
same,TGI,MDA-MB-435,2110 nM
same,GI50,MDA-MB-468 breast,1710 nM
same,TGI,MDA-MB-468 breast,3400 nM
same,GI50,MOLT-4 leukemia,295 nM
same,TGI,MOLT-4 leukemia,1280 nM
same,GI50,NCI-H226 lung,393 nM
same,TGI,NCI-H226 lung,1580 nM
same,GI50,NCI-H23 lung,1010 nM
same,TGI,NCI-H23 lung,2260 nM
same,GI50,NCI-H460 lung,1630 nM
same,TGI,NCI-H460 lung,3710 nM
same,GI50,NCI-H522 lung,185 nM
same,TGI,NCI-H522 lung,367 nM
same,GI50,NCI/ADR-RES ovarian,1960 nM
same,TGI,NCI/ADR-RES ovarian,4630 nM
same,GI50,OVCAR-5 ovarian,1850 nM
same,TGI,OVCAR-5 ovarian,3380 nM
same,GI50,OVCAR-8 ovarian,571 nM
same,TGI,OVCAR-8 ovarian,2540 nM
same,GI50,PC-3 prostate,1880 nM
same,TGI,PC-3 prostate,4180 nM
same,GI50,RPMI-8226 leukemia,387 nM
same,TGI,RPMI-8226 leukemia,2190 nM
same,GI50,RXF 393 renal,1250 nM
same,TGI,RXF 393 renal,2520 nM
same,GI50,SF-268 CNS,1950 nM
same,TGI,SF-268 CNS,4810 nM
same,GI50,SF-295 CNS,2120 nM
same,TGI,SF-295 CNS,5010 nM
same,GI50,SF-539 CNS,1580 nM
same,TGI,SF-539 CNS,2950 nM
same,GI50,SK-MEL-2 melanoma,1070 nM
same,TGI,SK-MEL-2 melanoma,2440 nM
same,GI50,SK-MEL-28 melanoma,1660 nM
same,TGI,SK-MEL-28 melanoma,3030 nM
same,GI50,SK-MEL-5 melanoma,662 nM
same,TGI,SK-MEL-5 melanoma,1950 nM
same,GI50,SK-OV-3 ovarian,1910 nM
same,TGI,SK-OV-3 ovarian,4310 nM
same,GI50,SN12C renal,256 nM
same,TGI,SN12C renal,1150 nM
same,GI50,SNB-19 CNS,1810 nM
same,TGI,SNB-19 CNS,3560 nM
same,GI50,SNB-75 CNS,1280 nM
same,TGI,SNB-75 CNS,5870 nM
same,GI50,SW-620 colon,209 nM
same,TGI,SW-620 colon,485 nM
same,GI50,TK-10 renal,1780 nM
same,TGI,TK-10 renal,3490 nM
same,GI50,U251 CNS,1390 nM
same,TGI,U251 CNS,2890 nM
same,GI50,UACC-257 melanoma,1740 nM
same,TGI,UACC-257 melanoma,3540 nM
same,GI50,UACC-62 melanoma,587 nM
same,TGI,UACC-62 melanoma,1930 nM
same,GI50,UO-31 renal,1410 nM
same,TGI,UO-31 renal,2720 nM

# Source: PubChem BioAssay (NCI)
